Data reported in article PMC9266797 (2022).

Tests used:
[1] = test system: poly A–poly U (RNA, polymer) A/U; assay: UV melting at 260 nm; settings: Na+ (sodium cacodylate, I = 0.05 M); pH 7.0; RNA 25 µM, r = 0.25; no Cu2+; per base
[2] = test system: poly A–poly U (RNA, polymer) A/U; assay: fluorimetric titration, Scatchard fit; settings: Na+ (sodium cacodylate, I = 0.05 M), n fixed at 0.2 per nucleobase, per base
[3] = test system: poly dAdT–poly dAdT (DNA, polymer) AT; assay: DAPI displacement by CD (ICD at 375 nm); settings: Na+ (sodium cacodylate, I = 0.05 M), pH 7.0, DAPI displaced; for IDA50%: ratio [DAPI]/[compound], range printed for 6 and 7 together
[4] = test system: poly dAdT–poly dAdT (DNA, polymer) AT; assay: CD (induced band at 375 nm); settings: Na+ (sodium cacodylate, I = 0.05 M); pH 7.0; DNA 20 µM, r[DAPI]/[DNA] = 0.6
[5] = test system: poly dAdT–poly dAdT (DNA, polymer) AT; assay: UV melting at 260 nm; settings: Na+ (sodium cacodylate, I = 0.05 M); pH 7.0; DNA 25 µM; no Cu2+; per base

| ∆Tm [1] | log Ks ([2]; pH 7.0) | IDA50% [3] | binding [4] | ∆Tm [5] | log Ks ([2]; pH 7.0, 0.04% DMSO, 1 µM compound) | binding ([3]; very weakly) | Structure (SMILES) |
| --- | --- | --- | --- | --- | --- | --- | --- |
| 0 ± 0.5 °C | 6.6 | 0.02–0.01 |  |  |  |  | COC(=O)[C@H](Cc1c[nH]c2ccccc12)NC(=O)C(Cc1cn(COC(=O)C(C)(C)C)nn1)NC(=O)c1ccc2ccc3cccc4ccc1c2c34 (stereo partly shown) |
|  |  |  | yes |  |  |  | N=C(N)c1ccc(-c2cc3ccc(C(=N)N)cc3[nH]2)cc1 |
| 0 ± 0.5 °C |  | 0.02–0.01 |  | 0 ± 0.5 °C | 6.8 |  | COC(=O)[C@H](Cc1c[nH]c2ccccc12)NC(=O)C(Cc1cn(COC(=O)C(C)(C)C)nn1)NC(=O)CCCc1ccc2ccc3cccc4ccc1c2c34 (stereo partly shown) |
| 0 ± 0.5 °C |  |  |  |  |  | weak | COC(=O)[C@H](Cc1c[nH]c2ccccc12)NC(=O)C(Cc1cn(COC(=O)C(C)(C)C)nn1)NC(=O)[C@@H](N)Cc1c[nH]c2ccccc12 (stereo partly shown) |
